Like-named read-outs stand apart in the source and are kept apart here.
Columns and labels:
[1] = human, in vivo
Procedure: Arm A: Patients without azole antifungal treatment within 7 days (or 21 days for isavuconazole) of first dose of the present compound
Arm B: Patients receiving posaconazole, voriconazole, or fluconazole antifungal prophylaxis at enrollment
The safety of each dose level also was evaluated by the SRC, which was comprised of all investigators participating in the study and selected Sponsor study team members. The dose recommended by the BLRM method was treated as guidance and was integrated with a clinical assessment of toxicity information and review of other available data, including safety, PK, pharmacodynamic, and laboratory data.
When the Dose Limiting Toxicity (DLT) evaluation for each cohort was completed, the SRC determined a next dose level based on the DLT and other available data, including safety, PK, pharmacodynamic, and laboratory data with reference to the Bayesian Logistic Regression Model (BLRM) recommendation.
Dose escalation decisions were made after all patients in a dose level cohort have at least completed Cycle 1. All available data were presented along with the BLRM predictions for toxicity probabilities at the potential next dose levels. The SRC then determined the dose(s) for the next cohort(s).

[2] = Phase 1/2 clinical study, plasma pharmacokinetic evaluation; type: in vivo, human; conditions: for time of maximum concentration: after dosing; for AUC(0-t) / Cmax / Tmax / half-life: human, plasma, oral; for half-life: read-out: t1/2 (converted)
Procedure: In the present test of the present compound, PK samples have been collected in up to 24 patients dosed in dose groups of 40, 80, 100, and 120 mg BID Arm A, and in dose groups of 40 and 60 mg BID Arm B (Table 6). Large preliminary PK inter-patient variability was observed.
(1) In the present study, PK samples have been collected in up to 42 patients dosed in dose groups of 40, 80, 100, 120, 140 and 200 mg BID Arm A, and in dose groups of 40, 60, 100, and 200 mg BID Arm B (Table 15).
(2) In the present study, PK samples have been collected in patients dosed in dose groups of 40, 80, 100, 120, 140, 200, and 300 mg BID Arm A, and in dose groups of 40, 60, 100, 200, and 300 mg BID Arm B (Table 16).

[3] = 40 mg, 40 mg BID Arm A, C1D1, N=2, mean
[4] = 40 mg, 40 mg BID Arm A, C2D1, N=1
[5] = 40 mg, 40 mg BID Arm B, C1D1, N=4, mean
[6] = 40 mg, 40 mg BID Arm B, C2D1, N=2, mean
[7] = 40 mg, Cycle 1 Day 1, 40 mg BID Arm A (without azole), N=2, mean
[8] = 40 mg, Cycle 1 Day 1, 40 mg BID Arm B (with azole), N=4, mean
[9] = 40 mg, Cycle 2 Day 1, 40 mg BID Arm A (without azole), N=1
[10] = 40 mg, Cycle 2 Day 1, 40 mg BID Arm B (with azole), N=2, mean
[11] = 40 mg, Table 15 cut-off, 40 mg BID Arm A, Cycle 1 Day 1, N=2, mean
[12] = 40 mg, Table 15 cut-off, 40 mg BID Arm A, Cycle 2 Day 1, N=1
[13] = 40 mg, Table 15 cut-off, 40 mg BID Arm B, Cycle 1 Day 1, N=4, mean
[14] = 40 mg, Table 15 cut-off, 40 mg BID Arm B, Cycle 2 Day 1, N=2, mean
[15] = 60 mg, 60 mg BID Arm B, C1D1, N=6, mean
[16] = 60 mg, 60 mg BID Arm B, C2D1, N=4, mean
[17] = 60 mg, Cycle 1 Day 1, 60 mg BID Arm B (with azole), N=6, mean
[18] = 60 mg, Cycle 2 Day 1, 60 mg BID Arm B (with azole), N=4, mean
[19] = 60 mg, Table 15 cut-off, 60 mg BID Arm B, Cycle 1 Day 1, N=6, mean
[20] = 60 mg, Table 15 cut-off, 60 mg BID Arm B, Cycle 2 Day 1, N=4, mean
[21] = 80 mg, 80 mg BID Arm A, C1D1, N=4, mean
[22] = 80 mg, 80 mg BID Arm A, C2D1, N=2, mean
[23] = 80 mg, Cycle 1 Day 1, 80 mg BID Arm A (without azole), N=4, mean
[24] = 80 mg, Cycle 2 Day 1, 80 mg BID Arm A (without azole), N=2, mean
[25] = 80 mg, Table 15 cut-off, 80 mg BID Arm A, Cycle 1 Day 1, N=4, mean
[26] = 80 mg, Table 15 cut-off, 80 mg BID Arm A, Cycle 2 Day 1, N=2, mean

## C=C1C[C@@H]2CC[C@H]1[C@@H](C(=O)N1CCC3(CC1)CN(c1ncncc1Oc1ccc(F)cc1C(=O)N(C(C)C)C(C)C)C3)N2 [the present compound, 5-fluoro-2-[(4-{7-[(1S,3S,4R)-5-methylidene-2-azabicyclo[2.2.2]octane-3-carbonyl]-2,7-diazaspiro[3.5]nonan-2-yl}pyrimidin-5-yl)oxy]-N,N-di(propan-2-yl)benzamide]
[1]
  SAE COVID-19, CTCAE Grade: 3
[2]; 40-200 mg BID cut-off
  drug accumulation with repeat dosing: minimal drug accumulation
  effect of azoles on the exposure: do not have a large effect
  exposure versus dose: Dose-dependent increases in exposures
  time of maximum concentration: ≤ 2 h
[2]; 40-300 mg BID cut-off
  drug accumulation with repeat dosing: minimal drug accumulation
  effect of azoles on the exposure: do not have a large effect
  exposure versus dose: Dose-dependent increases in exposures
  time of maximum concentration: ≤ 2 h
[2]; Arm A, 40, 80, 100, 120 mg BID
  exposure versus dose: a trend of dose-related increased in exposures
[2]; Arm B compared with Arm A, first cut-off
  impact of azoles on the exposure: do not have a large or dramatic impact
[2]; Cycle 2 Day 1 vs Cycle 1 Day 1, first cut-off
  drug accumulation with repeat dosing: minimal to no drug accumulation
[2]; FIGS. 4A to 4D cut-off
  accumulation with repeat dosing: minimal accumulation
  large drug-drug interaction (>~2-fold) with azoles: has not identified
[2]; doses ≥140 mg BID, FIGS. 4A to 4D cut-off
  exposure versus dose: Dose-related increases in exposures
[2]; [3]
  AUC(0-t): 3920 ng·h/mL
  Cmax: 1160 ng/mL
  Tmax: 1.25 h
  half-life: 3.35 h
[2]; [4]
  AUC(0-t): 4710 ng·h/mL
  Cmax: 772 ng/mL
  Tmax: 2 h
  half-life: 4.57 h
[2]; [5]
  AUC(0-t): 3270 ng·h/mL
  Cmax: 976 ng/mL
  Tmax: 0.625 h
  half-life: 4.41 h
[2]; [6]
  AUC(0-t): 5330 ng·h/mL
  Cmax: 987 ng/mL
  Tmax: 1.25 h
  half-life: 7.29 h
[2]; [7]
  AUC(0-t): 3960 ng·h/mL
  Cmax: 1160 ng/mL
[2]; [8]
  AUC(0-t): 3270 ng·h/mL
  Cmax: 976 ng/mL
[2]; [9]
  AUC(0-t): 4730 ng·h/mL
  Cmax: 772 ng/mL
[2]; [10]
  AUC(0-t): 5330 ng·h/mL
  Cmax: 987 ng/mL
[2]; [11]
  AUC(0-t): 3960 ng·h/mL
  Cmax: 1160 ng/mL
[2]; [12]
  AUC(0-t): 4730 ng·h/mL
  Cmax: 772 ng/mL
[2]; [13]
  AUC(0-t): 3270 ng·h/mL
  Cmax: 976 ng/mL
[2]; [14]
  AUC(0-t): 5330 ng·h/mL
  Cmax: 987 ng/mL
[2]; [15]
  AUC(0-t): 4140 ng·h/mL
  Cmax: 1170 ng/mL
  Tmax: 1.08 h
  half-life: 2.61 h
[2]; [16]
  AUC(0-t): 2610 ng·h/mL
  Cmax: 703 ng/mL
  Tmax: 0.75 h
  half-life: 3.19 h
[2]; [17]
  AUC(0-t): 4240 ng·h/mL
  Cmax: 1170 ng/mL
[2]; [18]
  AUC(0-t): 2690 ng·h/mL
  Cmax: 751 ng/mL
[2]; [19]
  AUC(0-t): 4240 ng·h/mL
  Cmax: 1170 ng/mL
[2]; [20]
  AUC(0-t): 2690 ng·h/mL
  Cmax: 751 ng/mL
[2]; [21]
  AUC(0-t): 5150 ng·h/mL
  Cmax: 1620 ng/mL
  Tmax: 1.25 h
  half-life: 2.82 h
[2]; [22]
  AUC(0-t): 2900 ng·h/mL
  Cmax: 1400 ng/mL
  Tmax: 0.75 h
  half-life: 3.4 h
[2]; [23]
  AUC(0-t): 5110 ng·h/mL
  Cmax: 1620 ng/mL
[2]; [24]
  AUC(0-t): 2900 ng·h/mL
  Cmax: 1400 ng/mL
[2]; [25]
  AUC(0-t): 5110 ng·h/mL
  Cmax: 1620 ng/mL
[2]; [26]
  AUC(0-t): 2900 ng·h/mL
  Cmax: 1400 ng/mL
[2]; 100 mg, 100 mg BID Arm A, C1D1, N=2, mean
  AUC(0-t): 4940 ng·h/mL

Reference: patent US20260248787A9, “MEDICAMENT FOR TREATING CANCER COMPRISING OPTICALLY ACTIVE AZABICYCLO RING DERIVATIVE” (Sumitomo Pharma Co., Ltd., priority 2023, published 2026)
